Measured values: patent US20260306641A1, “HELICASE DEGRADERS” (priority 2023, published 2026)

System: T1, human CMG helicase (hCMG)
T1 construct: made in house; host or cells: High Five insect cells, baculovirus (11 viruses co-infected)
Assay: hCMG helicase fork-unwinding (strand displacement) assay
Type: biochemical
Description: The human CMG helicase was purified following the established and validated protocol of Hurwitz and colleagues(19,20), with minor modifications. A detailed description of the approach is shown here, to allow for comparisons to the methods described by the Hurwitz group.
High Five insect cells (2-3 million cells/ml, 1.5 L), were in cultured in a shaking incubator at 27° C. in suspension with ESF921 serum free medium (Expression Systems, CA; cat. #96-001-01), then co-infected for 60 hrs with 11 baculoviruses expressing human 6His2Flag-Cdc45, the human MCM hexamer (Mcm2, Mcm3, Mcm4, Mem5, Mcm6, Mcm7), and human GINS (GST-Sld5, Psf3, Psf2, and Psf1). Each virus was infected at an MOI of ~10 from individual virus stocks. Infected cells were harvested by centrifugation at 650×g for 5 min at 4° C., washed with cold PBS, frozen on dry ice, and stored at −80° C. until use. The cell pellet (~20 mL) was thawed on ice, resuspended in 45 ml Hypotonic Buffer [20 mM Hepes-NaOH (pH 7.5), 5 mM KCl, 1.5 mM MgCl2] with protease inhibitors (1 mM [COMPOUND LEFT OUT], 1 mM Benzamidine, 0.15 μM Aprotinin, 4 μM Leupeptin, and 1 μM Antipain), and kept on ice for 10 min before lysing by Dounce homogenization (tight fitting, 60 strokes). The cell extract was adjusted to 0.42 M potassium acetate and centrifuged at 43,000×g for 1 hr at 4° C. The cleared lysate was mixed with 0.75 ml glutathione beads (cat. #17-0756-05; GE Healthcare) pre-equilibrated with FEQ buffer [20 mM Hepes-NaOH (pH 7.5), 0.42 M potassium acetate, 5 mM KCl, 1.5 mM MgCl2] and incubated by rotation at 4° C. overnight. Following centrifugation at 290×g at 4° C., the bound glutathione beads were washed four times (15 min each wash) with 40 ml of FW buffer [20 mM Hepes-NaOH (pH 7.5), 0.42 M potassium acetate, 1 mM DTT, 1 mM EDTA, 0.01% NP40, 10% glycerol (vol/vol) with protease inhibitors as above] containing protease inhibitors (as above). Bound proteins were eluted at 4° C. three times (1 hr each elution) with 3.5 ml Q buffer [20 mM Hepes-NaOH (pH 7.5), 1 mM DTT, 1 mM EDTA, 0.01% NP40, 10% glycerol (vol/vol), and protease inhibitors as above] containing 0.15 M potassium acetate and 20 mM reduced glutathione. The eluted fractions were combined and applied to a HiTrap Q-Sepharose FF column (HiTrap Q FF 1 mL, cat. #17505301, Cytiva), pre-equilibrated 3× with 5 ml of Q buffer containing 0.15 M, 0.75 M, 0.15M potassium acetate, in sequence. The Q-Sepharose FF column was washed with 10 ml of FW buffer containing protease inhibitors (as above). The proteins were eluted with 10 ml of Q buffer containing 0.75 M potassium acetate. The eluted fraction was mixed with 0.15 ml of anti-Flag M2 affinity gel/beads and incubated while rotating at 4° C. overnight. After centrifugation at 290×g for 5 min at 4° C., the beads were washed three times with 10 ml PreScission buffer [50 mM Tris-HCl (pH 7.5), 0.15 M NaCl, 1 mM DTT, 1 mM EDTA] for 15 min at 4° C., and eluted at 4° C. three times (1 hr each elution) with 0.2 ml PreScission enzyme buffer containing 0.2 mg/ml 3×-Flag peptides. The combined eluates were incubated with 20 Units of PreScission Protease (GE Healthcare) and 0.1 mL glutathione beads for 4 hr at 4° C. The supernatant was layered onto a 15-40% glycerol gradient [25 mM Tris-HCl (pH 7.5), 50 mM NaCl, 1 mM DTT, 1 mM EDTA, 0.01% NP40, protease inhibitors as above] in a 5 mL ultra-centrifugation tube and centrifuged at 260,000×g for 14 hr at 4° C. Glycerol fractions (0.15 mL each fraction) were collected from bottom of tube and stored at −80° C. until use. Typically, fractions 6-9 contained complete hCMG (~750-800 kDa) and co-migrated with thyroglobulin.
Helicase fork-unwinding assays were performed at 37° C. for 1 hr in 20 μL reaction volumes using 2-4 μl of hCMG (~15-30 fmol), in a buffer consisting of 25 mM Hepes-NaOH (pH 7.5), 5 mM NaCl, 0.5 mM ATP, 10 mM magnesium acetate, 1 mM DTT, 0.1 mg/ml bovine serum albumin (BSA), and ~10 fmol of radiolabeled DNA forks (20). […]

T1 sequence (P49736 whole entry): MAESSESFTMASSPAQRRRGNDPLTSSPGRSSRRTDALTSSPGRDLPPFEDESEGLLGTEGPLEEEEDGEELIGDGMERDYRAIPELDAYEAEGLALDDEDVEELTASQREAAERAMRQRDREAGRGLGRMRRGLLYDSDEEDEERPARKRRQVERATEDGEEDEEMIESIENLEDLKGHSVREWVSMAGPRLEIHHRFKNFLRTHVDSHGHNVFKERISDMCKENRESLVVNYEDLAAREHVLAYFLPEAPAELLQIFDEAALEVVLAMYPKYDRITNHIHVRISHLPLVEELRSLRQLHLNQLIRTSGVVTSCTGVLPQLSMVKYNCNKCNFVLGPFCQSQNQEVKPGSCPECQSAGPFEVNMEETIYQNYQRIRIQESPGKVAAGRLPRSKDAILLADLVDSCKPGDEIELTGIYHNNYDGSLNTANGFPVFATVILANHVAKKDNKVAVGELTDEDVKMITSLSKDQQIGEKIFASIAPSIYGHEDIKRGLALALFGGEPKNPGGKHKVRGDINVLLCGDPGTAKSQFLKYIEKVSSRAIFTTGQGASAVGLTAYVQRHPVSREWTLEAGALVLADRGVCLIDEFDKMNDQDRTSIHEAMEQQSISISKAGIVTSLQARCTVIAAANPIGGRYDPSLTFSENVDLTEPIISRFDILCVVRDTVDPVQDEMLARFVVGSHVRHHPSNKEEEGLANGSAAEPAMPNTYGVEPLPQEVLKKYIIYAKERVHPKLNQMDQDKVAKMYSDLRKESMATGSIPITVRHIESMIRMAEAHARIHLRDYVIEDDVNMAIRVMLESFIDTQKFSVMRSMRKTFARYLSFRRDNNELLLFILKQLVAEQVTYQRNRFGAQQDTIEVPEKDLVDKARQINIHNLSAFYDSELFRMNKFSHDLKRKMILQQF
T1 sequence (P25205 whole entry, further chain): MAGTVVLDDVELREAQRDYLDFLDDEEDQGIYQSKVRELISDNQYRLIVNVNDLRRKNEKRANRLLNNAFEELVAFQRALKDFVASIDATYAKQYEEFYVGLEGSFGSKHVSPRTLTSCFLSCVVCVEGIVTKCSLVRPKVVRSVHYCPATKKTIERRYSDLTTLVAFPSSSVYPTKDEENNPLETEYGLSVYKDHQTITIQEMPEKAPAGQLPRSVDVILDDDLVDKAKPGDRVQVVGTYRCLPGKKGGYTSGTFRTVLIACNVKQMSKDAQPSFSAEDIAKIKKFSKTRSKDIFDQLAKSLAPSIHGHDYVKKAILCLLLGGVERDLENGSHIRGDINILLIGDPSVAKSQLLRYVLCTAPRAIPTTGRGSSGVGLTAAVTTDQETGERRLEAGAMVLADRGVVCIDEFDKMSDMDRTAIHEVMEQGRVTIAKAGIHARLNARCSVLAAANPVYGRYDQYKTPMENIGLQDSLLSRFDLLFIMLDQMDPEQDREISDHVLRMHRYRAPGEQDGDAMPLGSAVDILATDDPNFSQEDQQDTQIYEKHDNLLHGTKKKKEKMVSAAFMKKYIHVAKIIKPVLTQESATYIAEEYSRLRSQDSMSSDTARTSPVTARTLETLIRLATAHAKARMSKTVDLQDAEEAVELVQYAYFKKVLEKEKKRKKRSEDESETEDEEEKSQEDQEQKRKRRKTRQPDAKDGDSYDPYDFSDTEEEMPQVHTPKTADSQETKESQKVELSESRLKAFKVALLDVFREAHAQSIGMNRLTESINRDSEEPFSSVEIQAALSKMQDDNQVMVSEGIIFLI
T1 sequence (P33991 whole entry, further chain): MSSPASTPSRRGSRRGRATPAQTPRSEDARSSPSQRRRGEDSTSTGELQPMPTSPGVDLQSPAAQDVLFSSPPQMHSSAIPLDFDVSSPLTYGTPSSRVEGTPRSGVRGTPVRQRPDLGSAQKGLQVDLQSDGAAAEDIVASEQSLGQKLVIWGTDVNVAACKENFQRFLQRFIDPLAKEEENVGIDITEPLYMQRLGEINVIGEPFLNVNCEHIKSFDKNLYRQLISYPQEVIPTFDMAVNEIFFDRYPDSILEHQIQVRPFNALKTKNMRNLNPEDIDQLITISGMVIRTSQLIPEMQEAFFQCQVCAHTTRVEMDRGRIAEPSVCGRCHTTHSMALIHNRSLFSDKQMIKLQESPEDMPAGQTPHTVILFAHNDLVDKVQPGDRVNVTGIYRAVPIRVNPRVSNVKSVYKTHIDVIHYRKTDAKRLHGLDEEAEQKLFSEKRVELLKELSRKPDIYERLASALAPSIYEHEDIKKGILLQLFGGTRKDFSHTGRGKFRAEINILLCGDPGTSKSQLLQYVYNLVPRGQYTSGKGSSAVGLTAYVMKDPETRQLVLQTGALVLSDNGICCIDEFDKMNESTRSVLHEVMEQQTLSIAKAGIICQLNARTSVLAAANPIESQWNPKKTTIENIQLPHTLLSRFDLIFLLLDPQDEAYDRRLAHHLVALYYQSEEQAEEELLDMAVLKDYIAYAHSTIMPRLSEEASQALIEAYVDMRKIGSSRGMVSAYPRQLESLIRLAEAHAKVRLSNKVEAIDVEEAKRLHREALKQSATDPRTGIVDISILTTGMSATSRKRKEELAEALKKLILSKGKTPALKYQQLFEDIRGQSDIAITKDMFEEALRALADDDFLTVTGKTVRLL
T1 sequence (P33992 whole entry, further chain): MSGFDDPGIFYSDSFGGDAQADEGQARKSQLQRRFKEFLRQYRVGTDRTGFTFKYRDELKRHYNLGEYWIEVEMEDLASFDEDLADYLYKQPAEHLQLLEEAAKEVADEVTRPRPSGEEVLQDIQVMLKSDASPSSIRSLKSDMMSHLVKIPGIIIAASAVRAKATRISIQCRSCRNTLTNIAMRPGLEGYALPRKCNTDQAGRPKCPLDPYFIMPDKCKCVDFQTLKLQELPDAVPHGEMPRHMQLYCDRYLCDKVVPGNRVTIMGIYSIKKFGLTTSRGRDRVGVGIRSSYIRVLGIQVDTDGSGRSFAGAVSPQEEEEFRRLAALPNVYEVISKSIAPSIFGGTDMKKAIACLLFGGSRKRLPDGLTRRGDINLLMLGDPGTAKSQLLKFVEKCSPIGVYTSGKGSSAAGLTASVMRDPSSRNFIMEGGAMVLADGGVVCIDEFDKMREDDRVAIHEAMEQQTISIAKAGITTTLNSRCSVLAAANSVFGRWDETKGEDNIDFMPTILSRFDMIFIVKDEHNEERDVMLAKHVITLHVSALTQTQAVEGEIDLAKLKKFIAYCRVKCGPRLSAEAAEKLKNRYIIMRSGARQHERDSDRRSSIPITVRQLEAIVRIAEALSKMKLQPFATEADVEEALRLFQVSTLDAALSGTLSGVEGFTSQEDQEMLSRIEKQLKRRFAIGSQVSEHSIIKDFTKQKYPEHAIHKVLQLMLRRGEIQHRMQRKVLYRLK
T1 sequence (Q14566 whole entry, further chain): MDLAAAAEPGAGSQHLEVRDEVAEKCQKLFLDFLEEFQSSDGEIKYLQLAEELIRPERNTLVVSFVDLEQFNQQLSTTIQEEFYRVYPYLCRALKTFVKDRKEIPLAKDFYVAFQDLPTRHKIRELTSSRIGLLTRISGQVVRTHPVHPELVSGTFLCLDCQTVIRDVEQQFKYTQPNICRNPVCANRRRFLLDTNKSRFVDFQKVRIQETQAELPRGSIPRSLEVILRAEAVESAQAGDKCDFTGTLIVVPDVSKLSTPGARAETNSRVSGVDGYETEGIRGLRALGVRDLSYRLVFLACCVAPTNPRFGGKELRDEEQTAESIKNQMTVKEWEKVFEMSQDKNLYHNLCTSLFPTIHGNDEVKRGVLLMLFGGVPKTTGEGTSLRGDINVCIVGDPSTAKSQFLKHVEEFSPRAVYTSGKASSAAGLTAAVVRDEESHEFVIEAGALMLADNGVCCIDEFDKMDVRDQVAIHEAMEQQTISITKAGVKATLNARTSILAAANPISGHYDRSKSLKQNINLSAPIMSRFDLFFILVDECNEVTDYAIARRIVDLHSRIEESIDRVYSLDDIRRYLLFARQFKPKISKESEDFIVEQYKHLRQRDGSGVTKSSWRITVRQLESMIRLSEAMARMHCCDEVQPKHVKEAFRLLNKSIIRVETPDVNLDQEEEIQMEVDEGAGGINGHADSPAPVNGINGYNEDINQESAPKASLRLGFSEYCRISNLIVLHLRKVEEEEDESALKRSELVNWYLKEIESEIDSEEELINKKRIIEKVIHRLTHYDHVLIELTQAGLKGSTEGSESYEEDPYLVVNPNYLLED
T1 sequence (P33993 whole entry, further chain): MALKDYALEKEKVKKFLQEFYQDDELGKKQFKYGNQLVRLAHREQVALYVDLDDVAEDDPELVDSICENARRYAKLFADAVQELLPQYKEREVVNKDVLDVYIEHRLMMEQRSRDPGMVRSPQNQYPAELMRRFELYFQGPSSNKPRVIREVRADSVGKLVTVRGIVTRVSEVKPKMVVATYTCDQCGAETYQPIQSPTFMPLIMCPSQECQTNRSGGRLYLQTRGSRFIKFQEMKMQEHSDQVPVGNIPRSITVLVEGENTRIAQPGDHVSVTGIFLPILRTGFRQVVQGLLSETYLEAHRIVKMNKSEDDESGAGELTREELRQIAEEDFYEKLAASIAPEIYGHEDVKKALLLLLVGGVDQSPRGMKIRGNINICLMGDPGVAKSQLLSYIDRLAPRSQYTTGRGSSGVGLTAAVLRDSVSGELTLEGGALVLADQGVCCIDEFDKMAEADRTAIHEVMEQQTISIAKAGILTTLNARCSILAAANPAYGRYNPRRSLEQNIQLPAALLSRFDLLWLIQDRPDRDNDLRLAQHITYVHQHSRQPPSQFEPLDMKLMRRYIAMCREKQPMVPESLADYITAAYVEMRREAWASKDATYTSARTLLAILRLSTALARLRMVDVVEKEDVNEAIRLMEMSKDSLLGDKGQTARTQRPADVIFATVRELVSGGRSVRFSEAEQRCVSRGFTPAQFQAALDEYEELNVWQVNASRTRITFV

Row | SMILES | hCMG helicase inhibition in secondary strand-displacement assay (500 μM compound) | inhibition of hCMG helicase activity, SAR set (500 μM compound) | hCMG helicase activity inhibition (fork-unwinding, ~15 fmol hCMG, 0.5 mM ATP) | mode of inhibition of hCMG helicase activity (role: inhibitor, CA1 2.5 μM, increasing ATP)
1 | CO[C@@H]1[C@@H](OC(=O)c2ccc(C)[nH]2)[C@@H](O)[C@H](Oc2ccc3c(O)c(NC(=O)c4c[nH]c(C(=O)Nc5c(O)c6ccc(O[C@@H]7OC(C)(C)[C@H](OC)[C@@H](OC(=O)c8ccc(C)[nH]8)[C@H]7O)c(C)c6oc5=O)c4C)c(=O)oc3c2C)OC1(C)C [CA1] | effective hCMG helicase inhibitors | potently inhibit the hCMG | 100% | classic ATP-competitive mechanism
2 | CO[C@@H]1[C@@H](OC(N)=O)[C@@H](O)[C@H](Oc2ccc3c(O)c(NC(=O)c4ccc(O)c(CC=C(C)C)c4)c(=O)oc3c2C)OC1(C)C [novobiocin] |  | only a small level of inhibition |  | 
